Assay results taken from patent US20030119800A1, “Bone anabolic compounds and methods of use” (priority 2001, published 2003).
Starred links: 1 amine or outer side, 2 acyl side, 3 side chain; linkers in the order of their positions; H or OH if unused. Positions of bridges follow the written chain, without caps; N, C: chain ends. Non-standard residues stand in square brackets, D forms with d. Residues, ends and D or L forms follow the SMILES beside them. Chains are numbered I, II in the order given. Actinocin(9to1) = Cc1c2oc3c(C)ccc(C(=O)[*:1])c3nc-2c(C(=O)[*:2])c(N)c1=O; NMeV = CN[C@H](C(=O)O)C(C)C; Sar = CNCC(=O)O

Key:
DERKO mice = conditions: mouse, in vivo; cited from earlier work
[1] = tested on: calvaria-derived murine osteoblastic cells; assay: Etoposide-induced apoptosis of calvaria-derived osteoblastic cells; format: cell-based, mouse; conditions: for difference in potency in osteoblasts from one sex versus the other: cell preparations from females or males; for etoposide-induced apoptosis in primary cultures of osteoblasts: cells from female or male mice, dose dependent manner; for effect of synthesis inhibitor on the protective effect of E2 on etoposide-induced apoptosis: murine calvaria derived osteoblasts, doses not affecting cell viability, data not shown
Excerpt: HeLa cells were co-transfected with reporter constructs in which SRE or AP-1 drive the expression of secreted alkaline phosphatase (SEAP), along with the wild type ERα (A and B); or its ligand binding domain (E), or E fused to a membrane (E-Mem) or nuclear (E-Nuc) localization sequence (A). A dominant negaitve (dn) MEK or dn Jnk were also introduced into a subset of the ERα transfected cells. […] In FIGS. 1A and 1B, 100% indicates activity in vehicle treated cells. (C) HeLa cells were co-transfected with the ERα and nEGFP and wild type or dn mutants of the indicated transcription factors. […] (D) HeLa cells (upper panel) were transiently co-transfected with the ERα, a nonphosphorylatable dn mutant of Bad. Calvaria-derived murine osteoblastic cells (lower panel) were pre-treated with the P13K inhibitor wortmannin. Cells were then treated as in (C). […] (E) Proposed model for a kinase-mediated non-genotropic regulation of gene transcription and apoptosis by sex steroids.
(§1) Osteoblastic cells (A) were isolated from calvaria of neonatal female or male mice, the sex of which was determined by Southern blot analysis of liver DNA with a Y chromosome specific cDNA probe; and cultured as previously described. The ability of the indicated steroids to protect against etoposide induced apoptosis was determined as in FIG. 1D, lower panel. (B) Osteoclasts were generated in bone marrow cultures from adult female or male mice, and then treated with vehicle or the indicated concentrations of steroids for 24 hours at which point the number of cells undergoing apoptosis was determined. Representative results from 1 of 4 females and 1 of 4 males examined are shown. Each point represents the mean of triplicate determinations±SD. *p<0.05 vs. vehicle, by ANOVA. (C & D) Eight-month old Swiss Webster mice (n=8-10 per group) were sham-operated, ovariectomized (OVX) or orchidectomized (ORX). […] BMD and wet uterine or seminal vesicle weight was determined six weeks later. Bars indicate means±SD. *p<0.05 vs OVX or ORX.
(§2) Quantification of apoptotic cells in vitro: Apoptosis of HeLa cells or calvaria-derived osteoblastic cells was quantified by direct visualization of changes in nuclear morphology or by trypan blue staining, respectively, as previously described (Kousteni et al, 2001). Apoptosis of osteoclasts, derived from bone marrow cells cultured with 30 ng/ml M-CSF and 30 ng/ml soluble RANK ligand, was quantified by measuring caspase 3 activity as previously described (Weinstein et al, 2002).

[2] = tested on: osteoclasts generated in bone marrow cultures from adult female or male mice; assay: Osteoclast apoptosis in bone marrow derived cultures; format: cell-based, mouse
Experimental: as §1
FIG. 8 illustrates the pro-apoptotic effect of sex steroids on osteoclasts requires Src/ERK signaling. […] After 24 hours, the percentage of apoptotic osteoclasts was determined as in FIG. 7.
as §2

[3] = tested on: cells from mice lacking both ERα and ERβ (DERKO); conditions: cited from earlier work
[4] = tested on: OVX or ORX Swiss Webster mice; assay: Gonadectomized (OVX or ORX) Swiss Webster mice with 60-day slow release pellets: bone and reproductive tissues; format: in vivo, mouse; conditions: for gonadectomy-induced changes (osteoblast apoptosis, loss of BMD, osteoblastogenesis and osteoclastogenesis): replacement dose pellets (E2 0.025 mg, DHT 10 mg), OVX or ORX, irrespective of sex
Experimental: as §1
FIG. 9 illustrates the equivalence of the skeletal actions of estrogens and androgens in female and male mice. […] Six weeks later, osteoblast apoptosis in histologic sections of the vertebrae (A), osteoblastogenesis and osteoclastogenesis in ex vivo bone marrow cultures (B and C), and serum osteocalcin concentration (D) were determined. Bars indicate means±SD, *p<0.05 vs OVX or ORX.
Global, spine and hindlimb BMD was determined at both 4 and 6 weeks later in the experiment with the 8 month old females, and at 6 weeks only in the experiments with the 6 month old females and males (A, B and C). The 6 week BMD data in females (B) represent pooled values from the two experiments with the 6- and the 8-month old mice.
Longitudinal undecalcified sections of the distal femur are shown in (B). […] Osteoblast apoptosis in sections of L1-L4 vertebrae from females (8 month old) and males (C).
Histomorphometric analysis of L1-L4 vertebrae from 6 month old females (A-F) and pooled serum osteocalcin levels from the 6 and 8 month old females (G). […] The ANGELS compounds described herein are useful for maintaining and/or increasing bone mass and/or strength and/or density in mammals. Mammals, preferably humans, in need of such compounds can include those suffering from such conditions as female osteoporosis (post menopausal), male osteoporosis, glucocorticoid-induced osteoporosis, immobilization and aging-related osteoporosis, idiopathic or juvenile osteoporosis, transplantation-related osteoporosis, and alveolar ridge bone loss. In addition, the compounds described herein are particularly useful for administration to subjects that are unable or unwilling to tolerate therapies that have a masculinizing or feminizing effect. For example, subjects such as breast cancer patients (especially those with bone metastasis on gonadotropin […] hormone (GnRH) or ovariectomized), prostrate cancer patients (especially those on GnRH/castration therapy), and myeloma/lymphoma patients are frequently poor candidates for treatment with estrogen or androgens because of the risk of a recurrence of the underlying condition, e.g., cancer.
Wet uterine (A) or seminal vesicle weight (B) of female and male mice described in FIG. 11. […] Note the following morphologic differences in the uteri of OVX- and OVX+4-estren-3α,17β-diol-treated mice as compared to uteri from sham-operated and OVX+E2-treated mice: thin and atrophic columnar epithelium; compact stroma; decreased number of glands; decreased nucleus to cytoplasmic ratio in the columnar epithelial, endometrial stroma, and myometrial cells; and absence of mitotic activity. (D) Proliferation of MCF-7 cells was determined by ^3H-thymidine uptake.
For these studies, mature Swiss Webster mice (8 month old), n=8-10 per group, were sham-operated or gonadectomized (GNDX). […]

ERα = target: T1, ERα (Homo sapiens, UniProt P03372); assay: SRE-SEAP and AP-1-SEAP reporter assays in HeLa cells transfected with ERα; format: cell-based; conditions: steroids 10^−8 M for 15 minutes (E2 as little as five minutes), SEAP six hours later
T1 construct: HeLa cells transfected with the full length ERα; expressed in transfected cells; host or cells: HeLa
T1 sequence (P03372 whole entry): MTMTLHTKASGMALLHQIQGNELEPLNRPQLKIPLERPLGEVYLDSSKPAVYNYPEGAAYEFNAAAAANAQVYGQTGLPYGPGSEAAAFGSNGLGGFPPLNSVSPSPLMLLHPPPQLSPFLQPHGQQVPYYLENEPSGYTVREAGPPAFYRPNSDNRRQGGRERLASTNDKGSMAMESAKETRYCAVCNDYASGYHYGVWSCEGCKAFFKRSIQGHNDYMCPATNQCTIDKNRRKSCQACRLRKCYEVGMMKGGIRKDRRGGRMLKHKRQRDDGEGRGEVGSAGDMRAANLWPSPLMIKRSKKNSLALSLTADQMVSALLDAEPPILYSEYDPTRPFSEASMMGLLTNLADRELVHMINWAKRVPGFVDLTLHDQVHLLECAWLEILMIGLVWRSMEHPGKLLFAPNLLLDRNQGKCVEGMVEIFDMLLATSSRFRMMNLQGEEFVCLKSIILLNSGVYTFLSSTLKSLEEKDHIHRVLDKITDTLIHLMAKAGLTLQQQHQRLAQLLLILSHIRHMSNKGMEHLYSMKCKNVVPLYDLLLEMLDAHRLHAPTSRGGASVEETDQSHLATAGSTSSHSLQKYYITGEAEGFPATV
Experimental: HeLa cells were co-transfected with reporter constructs in which SRE or AP-1 drive the expression of secreted alkaline phosphatase (SEAP), along with the wild type ERα (A and B); or its ligand binding domain (E), or E fused to a membrane (E-Mem) or nuclear (E-Nuc) localization sequence (A). A dominant negaitve (dn) MEK or dn Jnk were also introduced into a subset of the ERα transfected cells. Cells were exposed to vehicle or the indicated steroids (10^−8M) for 15 minutes. The steroid containing media were then removed, the cells were washed twice, and the cultures were continued in fresh medium without steroids. Supernatants were collected six hours later and SEAP activity was assayed. In FIGS. 1A and 1B, 100% indicates activity in vehicle treated cells. (C) HeLa cells were co-transfected with the ERα and nEGFP and wild type or dn mutants of the indicated transcription factors. […] (D) HeLa cells (upper panel) were transiently co-transfected with the ERα, a nonphosphorylatable dn mutant of Bad. […] Cells were then treated as in (C).
Transient transfections and reporter assays: HeLa cells were transfected using Lipofectamine Plus (Life Technologies Inc.). For reporter assays (luciferase or secreated alkaline phosphatase SEAP), serum-starved cells were treated with the indicated steroids for 15 min after which the steroid-containing media were removed, cells washed twice with 1% BSA in PBS, and fresh media without steroid were added. SEAP or luciferase assays were performed 6 h later using the Great EscAPe SEAP Chemiluminescence Kit (Clontech, Palo Alto, Calif.) or the dual luciferase Kit (Promega, Madison, Wis.), respectively, according to the manufacturer's instructions. Both reporter activities were normalized to renilla luciferase activity.

Bad = assay: E2-induced phosphorylation of Bad; format: cell-based; conditions: studies not shown (Kousteni et al, 2002)

Structure (SMILES): C[C@]12CC[C@@H]3c4ccc(O)cc4CC[C@H]3[C@@H]1CC[C@@H]2O [E2, 17β-estradiol]
- bone loss following OVX in DERKO mice (DERKO mice): prevented
- difference in potency in osteoblasts from one sex versus the other [1]: no difference
- etoposide-induced apoptosis in primary cultures of osteoblasts [1]: attenuated etoposide-induced apoptosis
- difference in potency in osteoclasts from females and males [2]: no difference
- ERK phosphorylation in DERKO cells [3]: stimulates
- osteoblast apoptosis in DERKO cells [3]: prevents
- osteoclast apoptosis in DERKO cells [3]: stimulates
- effect on the bone marrow cavity ([4]; 4-estren-3α,17β-diol 7.6 mg pellet, E2 pharmacologic dose 100× the replacement dose): closing the bone marrow cavity
- longitudinal undecalcified sections of the distal femur ([4]; 4-estren-3α,17β-diol at 300× ERT versus vehicle or E2 1× ERT, E2 at 100× ERT): cancellous sclerosis
- seminal vesicle weight ([4]; ORX males, pellets E2 0.025 mg or 4-estren-3α,17β-diol 7.6 mg): failed to restore
- osteoclast number ([4]; as compared to the OVX group): suppressed
- rate of bone formation ([4]; as compared to the OVX group): suppressed
- gonadectomy-induced changes (osteoblast apoptosis, loss of BMD, osteoblastogenesis and osteoclastogenesis) [4]: effectively prevented

Structure (SMILES): C[C@]12CCC(=O)C[C@@H]1CC[C@@H]1[C@@H]2CC[C@]2(C)[C@@H](O)CC[C@@H]12 [DHT, dyhydrotestosterone]
- difference in potency in osteoblasts from one sex versus the other [1]: no difference
- etoposide-induced apoptosis in primary cultures of osteoblasts [1]: attenuated etoposide-induced apoptosis
- difference in potency in osteoclasts from females and males [2]: no difference
- bone compression strength in the vertebrae, male mice ([4]; L5, ORX): equally effective
- BMD values in the spine versus the untreated ORX group ([4]; ORX males, 6 weeks): not
- wet uterine weight ([4]; OVX females, pellets DHT 10 mg or 4-estren-3α,17β-diol 7.6 mg): did restore
- gonadectomy-induced changes (osteoblast apoptosis, loss of BMD, osteoblastogenesis and osteoclastogenesis) [4]: effectively prevented

Structure (SMILES): C[C@@H]1C[C@@H]([C@H](O)CC2CC(=O)NC(=O)C2)C(=O)[C@@H](C)C1 [cyclohexamide]
- effect of synthesis inhibitor on the protective effect of E2 on etoposide-induced apoptosis [1]: abrogated

Structure (SMILES): Cc1ccc(-c2nn(C(C)(C)C)c3ncnc(N)c23)cc1 [PP1]
- effect of inhibitor on the pro-apoptotic effects of the sex steroids and 4-estren-3α,17β-diol on osteoclasts ([2]; pre-treatment for 1 hour prior to E2 or DHT): abrogated

Structure (SMILES): C[C@]12CC[C@@H]3c4ccc(O)cc4C[C@@H](CCCCCCCCC[S+]([O-])CCCC(F)(F)C(F)(F)F)[C@H]3[C@@H]1CC[C@@H]2O (stereo partly drawn) [ICI 182,780]
- effect of antagonist on the effects of E2 or DHT on the lifespan of osteoblasts [1]: blocked
- effect of antagonist on the effects of E2 or DHT on the lifespan of osteoclasts [2]: blocked
- effect of antagonist on the effects of E2 in the DERKO cells [3]: prevented

Structure (SMILES): c1cn[nH]c1 [pyrazole]
- AP-1-dependent transcriptional activity (AP-1-SEAP) (ERα): not
- SRE-dependent transcriptional activity (SRE-SEAP) (ERα): not

Structure (SMILES): Cc1c2oc3c(C)ccc(C(=O)N[C@@H]4C(=O)N[C@H](C(C)C)C(=O)N5CCC[C@H]5C(=O)N(C)CC(=O)N(C)[C@@H](C(C)C)C(=O)O[C@@H]4C)c3nc-2c(C(=O)N[C@@H]2C(=O)N[C@H](C(C)C)C(=O)N3CCC[C@H]3C(=O)N(C)CC(=O)N(C)[C@@H](C(C)C)C(=O)O[C@@H]2C)c(N)c1=O [actinomycin D] (I: T[dV]P[Sar][NMeV] / II: T[dV]P[Sar][NMeV]; ester I:1-I:C, II:1-II:C; linker I:N-II:N via Actinocin(9to1))
- effect of synthesis inhibitor on the protective effect of E2 on etoposide-induced apoptosis [1]: abrogated

Structure (SMILES): C[S+]([O-])c1ccc(-c2nc(-c3ccncc3)c(-c3ccc(F)cc3)[nH]2)cc1 (stereo not drawn) [SB203580]
- effect of kinase inhibitor on the anti-apoptotic effect of E2 and of 4-estren-3α,17β-diol ([1]; FIG. 1D, pre-treated calvaria-derived murine osteoblastic cells): not

Structure (SMILES): COc1cccc(-c2cc(=O)c3ccccc3o2)c1N [PD98059]
- effect of inhibitor on E2-induced phosphorylation of Bad (Bad): abolished
